We go through one molecule from article PMC4744570 (Pharmaceutical research, 2015).

The conditions of data set [1]: parent drug; cited from earlier work.
Data set [2] in a line: Lung pharmacokinetic profiling in guinea pigs after intratracheal instillation. The format is in vivo, guinea pigs (Cavia porcellus). As to conditions: male, guinea pig, 1.6 mg.
A further data set deals with P. aeruginosa. As to conditions: cited from earlier work.

A word on the Cmax: it is the highest concentration seen after dosing. Consider `C[C@@H](O)[C@H]1C(=O)N2C(C(=O)O)=C(S[C@@H]3CN[C@H](C(=O)N(C)C)C3)[C@H](C)[C@H]12` [meropenem], for which the “solubility (S) in water” value in data set [1] is over 50 mg/mL. The molecule also showed a Cmax in data set [2] (inhaled or intranasal) of over 70000 ng/mL. In data set [2] (other: intratracheal), this molecule yielded a concentration at 3 h of under 1000 ng/mL, a concentration at 9 h of 12 ng/mL and a concentration at 12 h of 10 ng/mL. For the same molecule, in the data set on P. aeruginosa, the MIC90 was 8,000 ng/mL.
